Data on 2 compounds can be found in PMC6161010, “A Simple and Sensitive Liquid Chromatography with Tandem Mass Spectrometric Method for the Simultaneous Determination of Anthraquinone Glycosides and Their Aglycones in Rat Plasma: Application to a Pharmacokinetic Study of Rumex acetosa Extract” (Pharmaceutics, 2018).

On the set-up of data set [1]: method as in PMID 19921750. To be noted: after administration of emodin 40 mg/kg; rapidly and extensively metabolized to its glucuronide; cited from earlier work.
The nature of data set [2]: Stability of the analytes in rat plasma (method validation). The format is in vitro ADME. As to conditions: n = 3; for Processed Sample Stability, Accuracy: processed rat plasma sample, 4 °C 24 h; for Short Term Stability, Accuracy / Freeze and Thaw Stability, Accuracy / Long Term Stability, Accuracy: rat plasma; for Short Term Stability, Accuracy: room temperature 4 h; for Freeze and Thaw Stability, Accuracy: three freeze-thaw cycles −80 °C to room temperature; for Long Term Stability, Accuracy: −80 °C one month. Here is the method:
(§1) The stability of the analytes in rat plasma was evaluated by analyzing triplicates of three QC levels at room temperature for 4 h (short-term stability), −80 °C for one month (long-term stability), three freeze-thaw cycles from −80 °C to room temperature (freeze and thaw stability), and 4 °C for 24 h (processed sample stability). The stability of analytes in stock solution was also evaluated. The peak areas obtained from freshly prepared stock solutions were compared with stock solutions stored for 4 h at room temperature.

The nature of data set [3]: Pharmacokinetic study after oral administration of R. acetosa extract to rats. The format is in vivo, Sprague‒Dawley rats. As to conditions: oral R. acetosa extract 2 g/kg. Here is the method: The analysis was performed on an Agilent 1260 series (Agilent Technologies, Waldbronn, Germany) HPLC system. Chromatographic separation of the samples was carried out on a Kinetex Biphenyl column (100 × 3.0 mm, 2.6 μm, 110 Å, Phenomenex, Torrance, CA, USA). The mobile phase consisted of 2 mM ammonium formate (pH 6) in water (A) and 2 mM ammonium formate (pH 6) in methanol (B). The gradient program was used at a flow rate of 0.3 mL/min while maintaining the column temperature at 40 °C. The mobile phase initial composition of 25% B was maintained for 2 min. It was then increased linearly from 25% to 95% B for 0.5 min and held for 7 min. The gradient was then changed back to the initial condition for 0.5 min and kept at the initial condition for 3 min. The total analysis time was 13 min for each sample. The injection volume was 15 μL.
The mass spectrometric detection was performed on an Agilent 6460 triple-quadruple mass spectrometer (Agilent Technologies, Singapore) with an electrospray ionization source. It was operated in the negative ion detection mode because of its higher sensitivity than that in the positive ionization mode on multiple reaction monitoring (MRM). The data were acquired and processed using Mass Hunter Workstation B.06.00 software (Agilent Technologies, Singapore). The source parameters were also optimized as follows: a drying gas flow and temperature at 6 L/min and 350 °C were used, respectively; the sheath gas flow and temperature were maintained at 12 L/min and 350 °C, respectively; the nebulizing gas (N2) pressure was set at 25 psi; and the capillary and nozzle voltages were set at 3500 V and 500 V, respectively.
To 20 μL aliquot of the rat plasma samples, 60 μL of 5 ng/mL IS in methanol was added. The mixture was vortexed for 30 s and kept at 4 °C for 30 min. The mixture was centrifuged at 10,000× g for 10 min. The supernatant was transferred to an HPLC vial, and 15 μL of the processed sample was injected onto the LC-MS/MS system.
Male Sprague‒Dawley rats (8-week-old, weighing 250 ± 10 g) were obtained from Koatech (Pyeongtaek, Korea). They were housed and acclimated in the Animal Laboratory, Gyeongsang National University, under controlled temperature and humidity and regular 12 h light cycle, freely accessible to food and water for 7 days before the experiment. The rats were cannulated into the carotid artery and allowed to recover for one day. Before the pharmacokinetic study, all rats were fasted for 12 h with free access to water. R. acetosa extract suspended in a solution (ethanol:polysorbate 80:water = 1:2:7, v/v/v) was orally administered to the three rats at a dose of 2 g/kg. The calculated doses of compounds based on the contents in the extract were 18.8, 25.8, 13.6, 15.4, 3.4, and 8.2 mg/kg for E, EG, C, CG, P, and PG, respectively. Blood samples (100 µL) were collected via the cannulated carotid vessel at 0, 15, 30, 45 min, 1, 2, 3, 4, 6, 8, 12, and 24 h after oral administration. To collect plasma, the blood samples were immediately centrifuged at 10,000× g for 5 min. All plasma samples were stored at −80 °C until analysis. All experimental procedures of the animal study were approved (GNU-130618-R0038) by the Animal Care and Use Committee of Gyeongsang National University, Korea.

Details of data set [4]: method as in doi:10.1039/C5RA27273D. As to conditions: hyperlipidemic hamsters after administration of rhubarb; cited from earlier work.
Data set [5] is described as follows: Stability of analytes in stock solution. As to conditions: stock solutions stored at room temperature for 4 h, n = 3. The format is physicochemical. The procedure:
The primary stock solutions of E, EG, C, CG, P, PG, and IS were prepared in dimethyl sulfoxide at a concentration of 1 mg/mL and stored at −80 °C. The mixture stock solutions to obtain the standard solutions were serially diluted in methanol. The IS stock solution of 5 ng/mL was prepared in methanol. The calibration standards were prepared by spiking 10 μL of above standard solutions into 90 μL of blank rat plasma to yield concentration ranges of 1–300 ng/mL for E, 20–300 ng/mL for P and C, 1–150 ng/mL for EG, 10–150 ng/mL for CG and PG. Twenty microliters of aliquots were prepared and stored at −80 °C until analysis.
as §1

[6] abbreviates: high QC (P, E, C 300; PG, EG, CG 150 ng/mL).
Where [7] appears, read: low QC (P, C 60; E, EG 3; PG, CG 30 ng/mL).
Setting [8] is: middle QC (P, E, C 150; PG, EG, CG 75 ng/mL).

Read-outs that look alike come from different tables or passages of the source.

The term MRT denotes a mean duration of stay, worked out from the concentration-time curve. The Cmax is the highest concentration seen after dosing. Usually AUC(0-t) stands for exposure summed from dosing to a finite time, without extrapolation to infinity.

Turning to `Cc1cc(O)c2c(c1)C(=O)c1cc(O)cc(O)c1C2=O` [E, emodin], the “detection of the parent form (in words)” value in data set [1] was “almost undetectable”. In data set [2] (setting [6]), the “Processed Sample Stability, Accuracy” value stood at 104.6%; the “Short Term Stability, Accuracy” value is recorded as 101.8%; the “Freeze and Thaw Stability, Accuracy” value was found to be 102.0%; the “Long Term Stability, Accuracy” value is recorded as 107.7%. Besides, in data set [2] (setting [7]), the “Processed Sample Stability, Accuracy” value is on record as 108.2%; the “Short Term Stability, Accuracy” value worked out at 103.2%; the “Freeze and Thaw Stability, Accuracy” value is 107.5%; the “Long Term Stability, Accuracy” value was determined as 106.8%. Moreover, in data set [2] (setting [8]), the “Processed Sample Stability, Accuracy” value was determined as 108.0%; the “Short Term Stability, Accuracy” value is 100.7%; the “Freeze and Thaw Stability, Accuracy” value is given as 104.5%; the “Long Term Stability, Accuracy” value turned out to be 107.8%. In data set [3] (male, Sprague-Dawley, plasma, rat, n = 3, mean ± SD), this compound showed an MRT of 7.7 ± 3 h. In data set [3] (male, Sprague-Dawley, plasma, rat, read-out: Median Tmax (converted)), the Tmax was 0.25 h. Moreover, the highest level in data set [3] (male, Sprague-Dawley, rat plasma, n = 3, mean ± SD) (Cmax) was 124 ± 41.7 ng/mL. The same compound registered an AUC(0-t) in data set [3] (male, Sprague-Dawley, rat plasma, n = 3, mean ± SD, last measured time points for C, E, CG, PG 6, 24, 8, 6 h) of 1160 ± 336 ng·h/mL. Moreover, in data set [3] (rat), the “first time detected in plasma of every rat (first sampling time)” value was found to be 15 min and the “time until which the analyte could be detected in plasma” value was determined as 24 h. Also, the Tmax in data set [3] (rat, n = 3, median (range)) is 0.25 (0.25–0.75) h. Further, the “time until which the analyte could be detected” value in data set [4] is 36 h. Besides, the “mean concentration in stock solution compared with fresh stock solutions” value in data set [5] worked out at 94.8%.
Consider `Cc1cc(O)c2c(c1)C(=O)c1cc(O)cc(O[C@@H]3O[C@H](CO)[C@@H](O)[C@H](O)[C@H]3O)c1C2=O` [EG, emodin-8-O-β-D-glucoside], for which, in data set [2] (setting [6]), the “Processed Sample Stability, Accuracy” value is given as 100.3%; the “Short Term Stability, Accuracy” value was 98.9%; the “Freeze and Thaw Stability, Accuracy” value stood at 100.9%; the “Long Term Stability, Accuracy” value is 102.8%. Also, in data set [2] (setting [7]), the “Processed Sample Stability, Accuracy” value stood at 91.5%; the “Short Term Stability, Accuracy” value came out at 99.8%; the “Freeze and Thaw Stability, Accuracy” value is on record as 100.4%; the “Long Term Stability, Accuracy” value amounted to 102.9%. Besides, in data set [2] (setting [8]), the “Processed Sample Stability, Accuracy” value is on record as 107.9%; the “Short Term Stability, Accuracy” value is listed as 108.5%; the “Freeze and Thaw Stability, Accuracy” value amounted to 112.3%; the “Long Term Stability, Accuracy” value is recorded as 107.9%. Moreover, in data set [3] (rat), the “plasma concentrations (in words)” value was “not high enough to determine the pharmacokinetic parameters”. Moreover, the “detection in plasma (in words)” value in data set [4] was “not detected”. For the same compound, the “mean concentration in stock solution compared with fresh stock solutions” value in data set [5] stood at 100.4%.
